Paper PMC2850129, “Changes in Activity and Kinetic Properties of the Proteasome in Different Rat Organs during Development and Maturation” (Current Gerontology and Geriatrics Research, 2010)
Starred links: 1 amine or outer side, 2 acyl side, 3 side chain; linkers in the order of their positions; H or OH if unused. Residues, ends and D or L forms follow the SMILES beside them. *: point of attachment. AMC = Cc1cc(=O)oc2cc(N*)ccc12; Suc = O=C(CCC(=O)[*:2])[*:1]; Cbz = O=C(OCc1ccccc1)*; Boc = CC(C)(C)OC(=O)*

Molecular target: T1, proteasome (Rattus norvegicus, UniProt P28073+P28075+Q9JHW0)
T1 construct: gene Psmb5; native, not purified; soluble fraction (100,000 g supernatant) of liver, brain or lens homogenate; 20S/26S and immunoproteasome content not resolved; with Proteasome subunit beta type-1; Proteasome subunit beta type-2; Proteasome subunit beta type-3; Proteasome subunit beta type-4; Proteasome subunit alpha type-1; Proteasome subunit alpha type-2; Proteasome subunit alpha type-3; Proteasome subunit alpha type-4; Proteasome subunit alpha type-5; Proteasome subunit alpha type-6; Proteasome subunit alpha type-7
Test: fluorogenic AMC release, Lineweaver-Burk plot
Assay type: biochemical
Conditions: liver soluble fraction, Tris pH 7.5, EDTA, 2 mM DTT, 37°C, per-animal values versus age, brain and lens in Figures 2 and 3

Question: `Cc1cc(=O)oc2cc(NC(=O)[C@H](CCC(=O)O)NC(=O)[C@H](CC(C)C)NC(=O)[C@H](CC(C)C)NC(=O)OCc3ccccc3)ccc12` [LLE, Z-Leu-Leu-Glu-AMC] (Cbz-Leu-Leu-Glu-{AMC}) was tested. Which K m (peptidylglutamyl peptidase site (beta1)) did it give?
Answer: Michaelis-Menten constants (K m) of the proteasome in rat liver versus age

Question: With `Cc1cc(=O)oc2cc(NC(=O)[C@H](Cc3ccc(O)cc3)NC(=O)[C@@H](NC(=O)[C@H](CC(C)C)NC(=O)[C@H](CC(C)C)NC(=O)CCC(=O)O)C(C)C)ccc12` [LLVY, Suc-Leu-Leu-Val-Tyr-AMC] (Suc-LLVY-{AMC}) as the molecule, how does the K m (chymotrypsin-like site (beta5)) read?
Answer: Michaelis-Menten constants (K m) of the proteasome in rat liver versus age

Question: Which K m (trypsin-like site (beta2)) does the source give for `Cc1cc(=O)oc2cc(NC(=O)[C@H](CCCNC(=N)N)NC(=O)CNC(=O)[C@@H](NC(=O)OC(C)(C)C)C(C)C)ccc12` [VGR, Boc-Val-Gly-Arg-AMC] (Boc-Val-Gly-Arg-{AMC}) here?
Answer: Michaelis-Menten constants (K m) of the proteasome in rat liver versus age
